Experimental data published in ChEMBL document CHEMBL1131744, “Amino-substituted thalidomide analogs: potent inhibitors of TNF-alpha production” (Bioorg Med Chem Lett, 1999).

What was measured:
[1] = tested on: PBMC; assay: Inhibition of lipopolysaccharide stimulated TNF-alpha release in human PBMC at 100 uM; format: functional
[2] = species on record: Homo sapiens; assay: Inhibition of lipopolysaccharide stimulated TNF-alpha release in human whole blood; format: functional
[3] = tested on: PBMC; assay: Inhibition of lipopolysaccharide stimulated TNF-alpha release in human PBMC; format: functional, cell-based
[4] = target: T1, Phosphodiesterase 4 (Homo sapiens) (UniProt P27815+Q08499+Q07343+Q08493); assay: Inhibition of Phosphodiesterase 4 from U937 cells at 100 uM; format: cell-based; conditions: U-937
[5] = target: T1, Phosphodiesterase 4 (Homo sapiens); assay: Inhibition of PDE4 from U937 cells at 100 uM; format: cell-based; conditions: U-937

| Structure (SMILES) | IC50 [2] [nM] | inhibition [4] [%] | inhibition [5] [%] | inhibition at 100 µM [1] [%] | IC50 [3] [nM] |
| --- | --- | --- | --- | --- | --- |
| Nc1ccc2c(c1)CN(C1CCC(=O)NC1=O)C2=O (stereo unspecified) | – | – | – | 15 | – |
| Nc1cccc2c1C(=O)N(C1CCC(=O)NC1=O)C2 (stereo unspecified) | – | – | – | 18 | – |
| Nc1ccc2c(c1)C(=O)N(C1CCC(=O)NC1=O)C2=O (stereo unspecified) | – | – | – | 55 | – |
| Nc1ccc2c(c1)C(=O)N(C1CCC(=O)NC1=O)C2 (stereo unspecified) | – | – | – | 12 | – |

The next lines start with results.

| IC50 [2] [nM] | inhibition [4] [%] | inhibition [5] [%] | Structure (SMILES) | inhibition at 100 µM [1] [%] | IC50 [3] [nM] |
| --- | --- | --- | --- | --- | --- |
| 14 | – | – | Nc1cccc2c1C(=O)N([C@H]1CCC(=O)NC1=O)C2=O | 99 | 3.9 |
| 25 | < 50 | – | Nc1cccc2c1C(=O)N(C1CCC(=O)NC1=O)C2=O (stereo unspecified) [POMALIDOMIDE] | 95 | 13 |
| 480 | < 50 | – | Nc1cccc2c1CN(C1CCC(=O)NC1=O)C2=O (stereo unspecified) [LENALIDOMIDE] | 74 | – |
| 216 | – | < 50 | CC1(N2C(=O)c3cccc(N)c3C2=O)CCC(=O)NC1=O (stereo unspecified) | 98 | 44 |
| 73 | – | – | Nc1cccc2c1C(=O)N([C@@H]1CCC(=O)NC1=O)C2=O | 85 | 93 |
